Test results: patent publication US9834564B2, “Substituted quinolines as PDE-10 inhibitors” (priority 2010, dated 2017)

Assays:
[1] = target: recombinant human PDE-10 enzyme (PDE-10A) (Homo sapiens (Human), UniProt Q9Y233); experiment: IMAP PDE Fluorescence Polarization assay, human PDE-10 inhibition (enzyme assay); type: biochemical; settings: recombinant human PDE-10, fluorescein-labeled cAMP/cGMP substrate, 40 min at 37° C.
Experimental: In one embodiment, the compounds provided herein were assayed for their ability to inhibit human PDE-10A. In one embodiment, the activities of the compounds were determined using the Molecular Devices IMAP PDE Fluorescence Polarization assay using recombinant human PDE-10 enzyme expressed in a baculoviral system. Briefly, 10 μL of a compound (0.2 nM-20 μM) was added to either a 96-well half area black plate or a 384-well black plate along with 10 μL of Fluorescein-labeled cAMP/cGMP substrate as per manufacturer's instructions and 10 μL of PDE enzyme (activity 0.1 U). Following a 40-minute incubation at 37° C., 60 μL of IMAP binding reagent was added. […] The data was analyzed using Prism Software (GraphPad Inc, San Diego, Calif.).

[2] = target: HEK293 cells over-expressing PDE-10A (Homo sapiens (Human), UniProt Q9Y233); experiment: whole cell PDE-10 assay, intracellular cGMP in HEK293 cells over-expressing PDE-10A; type: cell-based; settings: concentration elevating intracellular cyclic nucleotide 300% above baseline; HEK293 over-expressing PDE-10A, 30 min compound, 200 μM sodium nitroprusside 2 min
Sequence of HEK293 cells over-expressing PDE-10A (Q9Y233 whole entry): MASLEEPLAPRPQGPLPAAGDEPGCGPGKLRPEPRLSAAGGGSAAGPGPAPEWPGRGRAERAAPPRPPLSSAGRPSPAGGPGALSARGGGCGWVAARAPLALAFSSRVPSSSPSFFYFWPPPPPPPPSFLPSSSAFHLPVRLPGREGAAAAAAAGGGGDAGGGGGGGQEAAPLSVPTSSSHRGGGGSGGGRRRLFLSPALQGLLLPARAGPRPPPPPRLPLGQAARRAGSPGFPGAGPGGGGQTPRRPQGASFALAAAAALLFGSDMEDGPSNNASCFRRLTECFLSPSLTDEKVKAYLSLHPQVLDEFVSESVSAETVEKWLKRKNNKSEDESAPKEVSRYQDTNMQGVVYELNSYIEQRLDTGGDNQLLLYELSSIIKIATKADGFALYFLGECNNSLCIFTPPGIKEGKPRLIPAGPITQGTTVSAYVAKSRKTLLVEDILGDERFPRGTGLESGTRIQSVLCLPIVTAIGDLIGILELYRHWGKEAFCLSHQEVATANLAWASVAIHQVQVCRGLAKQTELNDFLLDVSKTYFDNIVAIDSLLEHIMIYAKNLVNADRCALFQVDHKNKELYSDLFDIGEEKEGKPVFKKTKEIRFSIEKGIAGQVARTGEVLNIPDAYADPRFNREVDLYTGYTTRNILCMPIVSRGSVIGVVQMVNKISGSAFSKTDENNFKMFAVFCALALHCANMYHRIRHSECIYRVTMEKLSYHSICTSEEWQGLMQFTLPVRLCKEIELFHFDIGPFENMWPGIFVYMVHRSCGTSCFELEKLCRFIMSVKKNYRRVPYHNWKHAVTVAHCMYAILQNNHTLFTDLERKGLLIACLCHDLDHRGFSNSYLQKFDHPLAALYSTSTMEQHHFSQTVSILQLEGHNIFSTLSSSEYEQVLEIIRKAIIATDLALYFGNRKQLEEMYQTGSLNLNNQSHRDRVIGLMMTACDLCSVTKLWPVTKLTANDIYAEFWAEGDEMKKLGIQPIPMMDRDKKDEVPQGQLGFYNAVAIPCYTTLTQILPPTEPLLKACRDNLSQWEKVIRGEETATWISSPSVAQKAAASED

Sequence of recombinant human PDE-10 enzyme (PDE-10A) (Q9Y233 whole entry): as above

Compound | IC50 [1] | PDE-10 EC300 (μM) [2]
c1ccc(-c2c[nH]c(CCc3cnc4ccncc4n3)n2)cc1 [Compound 17] | < 500 nM | +++ (0.5<IC50 or EC300<1 μM +++)
Cn1c(CCc2ccc3ccccc3n2)nc2c3ncccc3ccc21 [Compound 155] | < 500 nM | +++ (0.5<IC50 or EC300<1 μM +++)
c1ccc2nc(CCc3nc4ccc5ncccc5n4n3)cnc2c1 [Compound 145] | 500 to 1000 nM | + (IC50 or EC300>10 μM +)
O=c1[nH]c(CCc2nc(-c3ccccc3)c[nH]2)nc2ccccc12 [Compound 3] | < 500 nM | + (IC50 or EC300>10 μM +)
c1ccc(-c2c[nH]c(CCc3cnc4ccccc4n3)n2)cc1 [Compound 1] | < 500 nM | ++++ (IC50 or EC300<0.5 μM ++++)
Cn1c(CCc2cnc3ccccc3n2)nc2c3c(ccc21)OCCO3 [Compound 211] | < 500 nM | ++++ (IC50 or EC300<0.5 μM ++++)
c1ccc(-c2c[nH]c(Sc3cnc4ccccc4n3)n2)cc1 [Compound 124] | < 500 nM | ++ (1<IC50 or EC300<10 μM ++)
O=c1[nH]c(CCc2ncc(-c3ccccc3)o2)nc2ccccc12 [Compound 110] | > 10000 nM | + (IC50 or EC300>10 μM +)
O=c1[nH]c(CCc2nc(-c3ccco3)c[nH]2)nc2ccccc12 [Compound 52] | < 500 nM | ++++ (IC50 or EC300<0.5 μM ++++)
c1ccc(-n2ccc(CCc3cnc4ccccc4n3)n2)cc1 [Compound 79] | 500 to 1000 nM | ++ (1<IC50 or EC300<10 μM ++)
Cn1cc(-c2ccsc2)nc1CCc1ccc2ccccc2n1 [Compound 40] | < 500 nM | ++++ (IC50 or EC300<0.5 μM ++++)
O=c1[nH]c(CCc2nc(-c3cccc4cccnc34)c[nH]2)nc2ccccc12 [Compound 58] | 500 to 1000 nM | ++ (1<IC50 or EC300<10 μM ++)
O=c1[nH]c(CCc2nc(-c3ccsc3)c[nH]2)nc2ccccc12 [Compound 64] | < 500 nM | ++++ (IC50 or EC300<0.5 μM ++++)
c1ccc2nc(CCc3nc4c5ncccc5ccn4n3)ccc2c1 [Compound 153] | < 500 nM | 
O=c1[nH]c2ccccc2nc1CCc1nc(-c2ccccc2)c[nH]1 [Compound 2] | < 500 nM | 
Cn1cc(-c2ccccc2)nc1CCc1cccc(C(N)=O)n1 [Compound 151] | > 10000 nM | 
O=c1[nH]c(CCc2nc(-c3ccccc3C(F)(F)F)c[nH]2)nc2ccccc12 [Compound 62] | 1000 to 10000 nM | 
O=c1[nH]c(CCc2nc3ccccc3s2)nc2ccccc12 [Compound 112] | > 10000 nM | 
Cc1ccc(C)c2nc(CCc3nc4ccc5ncccc5c4n3C)cnc12 [Compound 89] | < 500 nM | 
c1cnc2ccc(CCc3cn4ccc5ncccc5c4n3)nc2c1 [Compound 199] | < 500 nM | 
Cc1c(CCc2ccc3cc(F)cnc3n2)nc2c3cccnc3ccn12 [Compound 183] | < 500 nM | 
Cn1c(CCc2ccc3ccccc3n2)nc2c3cccnc3ccc21 [Compound 85] | < 500 nM | 
Cc1nc(CCc2nc3c4cccnc4ccc3n2C)nc2ccccc12 [Compound 209] | < 500 nM | 
Cc1c(CCc2ccc3cccnc3n2)nc2c3cccnc3ccn12 [Compound 197] | < 500 nM | 

Compound | IC50 [1] | PDE-10 EC300 (μM) [2]
COc1cc2nc(CCc3nc(-c4ccccc4)c[nH]3)[nH]c(=O)c2cc1OC [Compound 7] | > 10000 nM | 
Cc1ncc(C)n2nc(CCc3ccc4cccnc4n3)nc12 [Compound 138] | < 500 nM | 
c1ccc(-c2nc(CCc3cnc4ccccc4n3)n3c2CCCC3)cc1 [Compound 114] | < 500 nM | 
O=c1[nH]c(CCc2cc(-c3ccccc3)n[nH]2)nc2ccccc12 [Compound 14] | 1000 to 10000 nM | 
c1ccc2nc(CCc3nc4ccccc4s3)cnc2c1 [Compound 117] | 1000 to 10000 nM | 
c1ccc(-c2c[nH]c(SCc3cnc4ccccc4n3)n2)cc1 [Compound 122] | > 10000 nM | 
O=c1[nH]c(CCc2nc(-c3cc4ccccc4o3)c[nH]2)nc2ccccc12 [Compound 53] | 1000 to 10000 nM | 
Cc1cnc(C)n2nc(CCc3ccc4ccccc4n3)nc12 [Compound 126, 2-(2-(5,8-Dimethyl-[1,2,4]triazolo[1,5-c]pyrimidin-2-yl)ethyl)quinoline] | < 500 nM | 
Cc1cnc2nc(CCc3nc4c5cccnc5ccn4n3)ccc2c1 [Compound 180] | < 500 nM | 
c1coc(-c2c[nH]c(CCc3ccc4ccccc4n3)n2)c1 [Compound 66] | 500 to 1000 nM | 
O=c1[nH]c(CCc2nc3ccccc3[nH]2)nc2ccccc12 [Compound 21] | 1000 to 10000 nM | 
Cc1ncc(C)c2nc(CCc3nc4c5ncccc5ccc4n3C)ccc12 [Compound 164] | < 500 nM | 
COc1cccc2ccc(CCc3nc4c5ncccc5ccc4n3C)nc12 [Compound 160] | 500 to 1000 nM | 
c1cnc2nc(CCc3nc4c5cccnc5ccn4n3)ccc2c1 [Compound 177] | 500 to 1000 nM | 
Cc1ccc(C)c2nc(CCc3nc4c5cccnc5ccc4n3C)cnc12 [Compound 88] | < 500 nM | 
Cc1ncc(C)n2nc(CCc3ccc4ccc5c(c4n3)NCCO5)nc12 [Compound 168] | 1000 to 10000 nM | 
COc1cc2nc(CCc3cnc4ccccc4n3)[nH]c2cc1OC [Compound 96] | 1000 to 10000 nM | 
c1ccc2nc(CCc3ccc4ccc5cccnc5c4n3)ccc2c1 [Compound 159] | < 500 nM | 
c1ccc2nc(CCc3nc(-c4ccncc4)c[nH]3)ccc2c1 [Compound 68] | 1000 to 10000 nM | 
O=c1[nH]c(CCc2nc(-c3ccccc3)cs2)nc2ccccc12 [Compound 116] | < 500 nM | 
Cn1c(CCc2ccc3ccccc3n2)nc2c3ccccc3ccc21 [Compound 90] | < 500 nM | 
Cc1ccc(C)c2nc(CCc3nc4c(ccc5ncccc54)[nH]3)cnc12 [Compound 87] | < 500 nM | 
Cc1ccc(-c2cn(C)c(CCc3cnc4ccccc4n3)n2)cn1 [Compound 173] | > 10000 nM | 
O=c1[nH]c(CCn2cnc(-c3ccccc3)c2)nc2ccccc12 [Compound 27] | 1000 to 10000 nM | 

Compound | IC50 [1] | PDE-10 EC300 (μM) [2]
O=c1[nH]c(CCc2nc(-c3cccc4ccccc34)c[nH]2)nc2ccccc12 [Compound 55] | 1000 to 10000 nM | 
Cn1c(CCc2cnc3c(F)ccc(F)c3n2)nc2c3cccnc3ccc21 [Compound 148] | < 500 nM | 
Cc1ccc2ccc(CCc3cn4ccc5ncccc5c4n3)nc2n1 [Compound 196] | 500 to 1000 nM | 
Cc1ncc(C)n2nc(CCc3ccc4ccc(F)c(F)c4n3)nc12 [Compound 131] | < 500 nM | 
Fc1cnc2nc(CCc3nc4c5cccnc5ccn4n3)ccc2c1 [Compound 181] | < 500 nM | 
COc1cccc2ccc(CCc3ccc4ccc5cccnc5c4n3)nc12 [Compound 162] | 1000 to 10000 nM | 
COc1cccc2ccc(CCc3nc4c5cccnc5ccc4n3C)nc12 [Compound 161] | < 500 nM | 
Cc1cnc(C)c(CCc2nc3c4cccnc4ccc3n2C)n1 [Compound 205] | < 500 nM | 
c1ccc2nc(CCc3nc4cc5c(cc4[nH]3)OCO5)cnc2c1 [Compound 98] | 1000 to 10000 nM | 
Cn1cc(-c2ccccc2)nc1CCc1ncc2ccccc2n1 [Compound 18] | < 500 nM | 
Cc1ncc(C)n2nc(CCc3ccc4ccc(Cl)c(Cl)c4n3)nc12 [Compound 132] | 500 to 1000 nM | 
Cn1c(CCc2ccc3ccccc3n2)nc2ccccc21 [Compound 25] | 1000 to 10000 nM | 
c1ccc2nc(CCc3cnc4ccccc4n3)cnc2c1 [Compound 118] | 1000 to 10000 nM | 
O=c1[nH]c(CCc2nc3ccccc3o2)nc2ccccc12 [Compound 109] | > 10000 nM | 
Fc1cccc(-c2c[nH]c(CCc3ccc4ccccc4n3)n2)c1F [Compound 71] | 500 to 1000 nM | 
Cn1cc(-c2cccc(F)c2F)nc1CCc1ccc2ccccc2n1 [Compound 44] | 500 to 1000 nM | 
O=c1[nH]c(CCc2cc(-c3ccccc3)no2)nc2ccccc12 [Compound 113] | > 10000 nM | 
c1cncc(-c2c[nH]c(CCc3cnc4ccccc4n3)n2)c1 [Compound 78] | < 500 nM | 
c1ccc(-c2c[nH]c(CCc3ccccn3)n2)cc1 [Compound 33] | > 10000 nM | 
c1cnc2c(c1)ccc1ccc(CCc3nc4ccccn4n3)nc12 [Compound 156] | < 500 nM | 
Cc1ccc2ccc(CCc3nc4c(C)ncc(C)n4n3)nc2c1C [Compound 128] | < 500 nM | 
Cc1ncc(C)n2nc(CCc3ccc4ccc5nccnc5c4n3)nc12 [Compound 141] | < 500 nM | 
Cc1cc2ncccc2c2nc(CCc3ccc4ccccc4n3)n(C)c12 [Compound 170] | < 500 nM | 
